Data from ChEMBL document CHEMBL3885881, “DrugMatrix”.

Species on record: Rattus norvegicus
Experiment: DrugMatrix - Regimen: Daily Repeat
Type: toxicity, organism-based, Sprague-Dawley
Set-up: regimen Daily Repeat, gender Male, age 6-8 weeks
Conditions: in vivo, iv, vehicle 100 % SALINE; for ABSOLUTE BASOPHIL / ABSOLUTE EOSINOPHIL / ABSOLUTE LYMPHOCYTE / ABSOLUTE MONOCYTE / ABSOLUTE SEGMENTED NEUTROPHIL / BASOPHIL / EOSINOPHIL / ERYTHROCYTE COUNT / HEMATOCRIT / HEMOGLOBIN / LEUKOCYTE COUNT / LYMPHOCYTE / MEAN CORPUSCULAR HEMOGLOBIN / MEAN CORPUSCULAR HEMOGLOBIN CONCENTRATION / MEAN CORPUSCULAR VOLUME / MONOCYTE / NEUTROPHIL / NUCLEATED RED BLOOD CELLS / PLATELET COUNT: tissue Blood; for ALANINE AMINOTRANSFERASE / ALBUMIN / ALKALINE PHOSPHATASE / ASPARTATE AMINOTRANSFERASE / BLOOD UREA NITROGEN / CARBON DIOXIDE / CHLORIDE / CHOLESTEROL / CREATINE PHOSPHOKINASE / CREATININE / GLUCOSE / LACTATE DEHYDROGENASE / LIPASE / PHOSPHORUS / POTASSIUM / SODIUM / TOTAL BILIRUBIN / TOTAL PROTEIN / URIC ACID: tissue Plasma
[1] = 200 mg/kg, 72 h, dose level Low, time 3 day
[2] = 200 mg/kg, 120 h, dose level Low, time 5 day
[3] = 671 mg/kg, 72 h, dose level High, time 3 day
[4] = 671 mg/kg, 120 h, dose level High, time 5 day

CC1(C)[C@H](C(=O)O)N2C(=O)C[C@H]2S1(=O)=O [SULBACTAM]
ABSOLUTE BASOPHIL [1]: 0 CELLS/uL
ABSOLUTE EOSINOPHIL [1]: 43 CELLS/uL
ABSOLUTE LYMPHOCYTE [1]: 14561.67 CELLS/uL
ABSOLUTE MONOCYTE [1]: 271 CELLS/uL
ABSOLUTE SEGMENTED NEUTROPHIL [1]: 824.33 CELLS/uL
BASOPHIL [1]: 0%
EOSINOPHIL [1]: 0.33%
ERYTHROCYTE COUNT [1]: 5.6 x10E6/uL
HEMATOCRIT [1]: 36.53%
HEMOGLOBIN [1]: 13.5 G/DL
LEUKOCYTE COUNT [1]: 15.7 x10E3/uL
LYMPHOCYTE [1]: 93%
MEAN CORPUSCULAR HEMOGLOBIN [1]: 24.1 pg
MEAN CORPUSCULAR HEMOGLOBIN CONCENTRATION [1]: 36.97 G/DL
MEAN CORPUSCULAR VOLUME [1]: 65.23 fL
MONOCYTE [1]: 1.67%
NEUTROPHIL [1]: 5%
NUCLEATED RED BLOOD CELLS [1]: 0 /100WBC
PLATELET COUNT [1]: 1408.33 x10E3/uL
ALANINE AMINOTRANSFERASE [1]: 53.67 u/L
ALBUMIN [1]: 4.27 G/DL
ALKALINE PHOSPHATASE [1]: 448.33 u/L
ASPARTATE AMINOTRANSFERASE [1]: 100 u/L
BLOOD UREA NITROGEN [1]: 15.67 mg/dL
CARBON DIOXIDE [1]: 25 mmol/L
CHLORIDE [1]: 104.33 MEQ/L
CHOLESTEROL [1]: 75.67 mg/dL
CREATINE PHOSPHOKINASE [1]: 386 u/L
CREATININE [1]: 0.21 mg/dL
GLUCOSE [1]: 148.33 mg/dL
LACTATE DEHYDROGENASE [1]: 566.33 u/L
LIPASE [1]: 9 u/L
PHOSPHORUS [1]: 14.37 mg/dL
POTASSIUM [1]: 6.91 MEQ/L
SODIUM [1]: 147.5 MEQ/L
TOTAL BILIRUBIN [1]: 0.2 mg/dL
TOTAL PROTEIN [1]: 5.87 G/DL
URIC ACID [1]: 2.33 mg/dL
ABSOLUTE BASOPHIL [2]: 0 CELLS/uL
ABSOLUTE EOSINOPHIL [2]: 0 CELLS/uL
ABSOLUTE LYMPHOCYTE [2]: 14657 CELLS/uL
ABSOLUTE MONOCYTE [2]: 318 CELLS/uL
ABSOLUTE SEGMENTED NEUTROPHIL [2]: 925 CELLS/uL
BASOPHIL [2]: 0%
EOSINOPHIL [2]: 0%
ERYTHROCYTE COUNT [2]: 5.84 x10E6/uL
HEMATOCRIT [2]: 37.7%
HEMOGLOBIN [2]: 14.03 G/DL
LEUKOCYTE COUNT [2]: 15.9 x10E3/uL
LYMPHOCYTE [2]: 92%
MEAN CORPUSCULAR HEMOGLOBIN [2]: 24.03 pg
MEAN CORPUSCULAR HEMOGLOBIN CONCENTRATION [2]: 37.23 G/DL
MEAN CORPUSCULAR VOLUME [2]: 64.47 fL
MONOCYTE [2]: 2%
NEUTROPHIL [2]: 6%
NUCLEATED RED BLOOD CELLS [2]: 0 /100WBC
PLATELET COUNT [2]: 1395.33 x10E3/uL
ALANINE AMINOTRANSFERASE [2]: 49.67 u/L
ALBUMIN [2]: 4.37 G/DL
ALKALINE PHOSPHATASE [2]: 374.33 u/L
ASPARTATE AMINOTRANSFERASE [2]: 126 u/L
BLOOD UREA NITROGEN [2]: 17 mg/dL
CARBON DIOXIDE [2]: 23 mmol/L
CHLORIDE [2]: 109 MEQ/L
CHOLESTEROL [2]: 81.67 mg/dL
CREATINE PHOSPHOKINASE [2]: 1350 u/L
CREATININE [2]: 0.18 mg/dL
GLUCOSE [2]: 184.33 mg/dL
LACTATE DEHYDROGENASE [2]: 397.67 u/L
LIPASE [2]: 9.67 u/L
PHOSPHORUS [2]: 15.07 mg/dL
POTASSIUM [2]: 6.82 MEQ/L
SODIUM [2]: 147.1 MEQ/L
TOTAL BILIRUBIN [2]: 0.17 mg/dL
TOTAL PROTEIN [2]: 6.2 G/DL
URIC ACID [2]: 2.3 mg/dL
ABSOLUTE BASOPHIL [3]: 0 CELLS/uL
ABSOLUTE EOSINOPHIL [3]: 155 CELLS/uL
ABSOLUTE LYMPHOCYTE [3]: 10321.67 CELLS/uL
ABSOLUTE MONOCYTE [3]: 230 CELLS/uL
ABSOLUTE SEGMENTED NEUTROPHIL [3]: 793.33 CELLS/uL
BASOPHIL [3]: 0%
EOSINOPHIL [3]: 1%
ERYTHROCYTE COUNT [3]: 5.18 x10E6/uL
HEMATOCRIT [3]: 33.43%
HEMOGLOBIN [3]: 12.83 G/DL
LEUKOCYTE COUNT [3]: 11.5 x10E3/uL
LYMPHOCYTE [3]: 90.33%
MEAN CORPUSCULAR HEMOGLOBIN [3]: 24.77 pg
MEAN CORPUSCULAR HEMOGLOBIN CONCENTRATION [3]: 38.4 G/DL
MEAN CORPUSCULAR VOLUME [3]: 64.63 fL
MONOCYTE [3]: 2%
NEUTROPHIL [3]: 6.67%
NUCLEATED RED BLOOD CELLS [3]: 0 /100WBC
PLATELET COUNT [3]: 1400 x10E3/uL
ALANINE AMINOTRANSFERASE [3]: 58 u/L
ALBUMIN [3]: 4.2 G/DL
ALKALINE PHOSPHATASE [3]: 390 u/L
ASPARTATE AMINOTRANSFERASE [3]: 79.67 u/L
BLOOD UREA NITROGEN [3]: 16.67 mg/dL
CARBON DIOXIDE [3]: 23.67 mmol/L
CHLORIDE [3]: 105 MEQ/L
CHOLESTEROL [3]: 91.67 mg/dL
CREATINE PHOSPHOKINASE [3]: 323 u/L
CREATININE [3]: 0.17 mg/dL
GLUCOSE [3]: 164.67 mg/dL
LACTATE DEHYDROGENASE [3]: 190.67 u/L
LIPASE [3]: 9.67 u/L
PHOSPHORUS [3]: 13.3 mg/dL
POTASSIUM [3]: 6.52 MEQ/L
SODIUM [3]: 144.27 MEQ/L
TOTAL BILIRUBIN [3]: 0.2 mg/dL
TOTAL PROTEIN [3]: 5.83 G/DL
URIC ACID [3]: 1.6 mg/dL
ABSOLUTE BASOPHIL [4]: 0 CELLS/uL
ABSOLUTE EOSINOPHIL [4]: 174 CELLS/uL
ABSOLUTE LYMPHOCYTE [4]: 13614.33 CELLS/uL
ABSOLUTE MONOCYTE [4]: 314 CELLS/uL
ABSOLUTE SEGMENTED NEUTROPHIL [4]: 1597.67 CELLS/uL
BASOPHIL [4]: 0%
EOSINOPHIL [4]: 1%
ERYTHROCYTE COUNT [4]: 5.71 x10E6/uL
HEMATOCRIT [4]: 36.2%
HEMOGLOBIN [4]: 13.7 G/DL
LEUKOCYTE COUNT [4]: 15.7 x10E3/uL
LYMPHOCYTE [4]: 86.67%
MEAN CORPUSCULAR HEMOGLOBIN [4]: 24 pg
MEAN CORPUSCULAR HEMOGLOBIN CONCENTRATION [4]: 37.87 G/DL
MEAN CORPUSCULAR VOLUME [4]: 63.33 fL
MONOCYTE [4]: 2%
NEUTROPHIL [4]: 10.33%
NUCLEATED RED BLOOD CELLS [4]: 0 /100WBC
PLATELET COUNT [4]: 1356 x10E3/uL
ALANINE AMINOTRANSFERASE [4]: 44.33 u/L
ALBUMIN [4]: 4.33 G/DL
ALKALINE PHOSPHATASE [4]: 277 u/L
ASPARTATE AMINOTRANSFERASE [4]: 78 u/L
BLOOD UREA NITROGEN [4]: 18.33 mg/dL
CARBON DIOXIDE [4]: 26.67 mmol/L
CHLORIDE [4]: 108.33 MEQ/L
CHOLESTEROL [4]: 75.67 mg/dL
CREATINE PHOSPHOKINASE [4]: 555.67 u/L
CREATININE [4]: 0.17 mg/dL
GLUCOSE [4]: 164.67 mg/dL
LACTATE DEHYDROGENASE [4]: 144 u/L
LIPASE [4]: 9 u/L
PHOSPHORUS [4]: 13.8 mg/dL
POTASSIUM [4]: 6.54 MEQ/L
SODIUM [4]: 148.8 MEQ/L
TOTAL BILIRUBIN [4]: 0.17 mg/dL
TOTAL PROTEIN [4]: 6.43 G/DL
URIC ACID [4]: 1.67 mg/dL
